Measurements as given in the NIST ThermoML archive (doi:10.1016/j.tca.2012.03.022).
Numbers after ± are expanded uncertainties.

Assay: molar heat capacity at constant pressure; wn = mass fraction of the nth substance listed
Conditions: 101 kPa, Crystal, Small sample (50 mg) DSC

## [W] [tungsten] + [Cu]
295.15 K, w1 = 0.728
  molar heat capacity at constant pressure: 25.9 ± 1.1 J/K/mol
295.15 K, w1 = 0.761
  molar heat capacity at constant pressure: 24.67 ± 1.1 J/K/mol
295.15 K, w1 = 0.837
  molar heat capacity at constant pressure: 26.96 ± 1.1 J/K/mol
295.15 K, w1 = 0.889
  molar heat capacity at constant pressure: 25.66 ± 1.1 J/K/mol
295.15 K, w1 = 0.913
  molar heat capacity at constant pressure: 25.81 ± 1.1 J/K/mol
373.15 K, w1 = 0.728
  molar heat capacity at constant pressure: 26.59 ± 1.1 J/K/mol
373.15 K, w1 = 0.761
  molar heat capacity at constant pressure: 25.12 ± 1.1 J/K/mol
373.15 K, w1 = 0.837
  molar heat capacity at constant pressure: 27.52 ± 1.2 J/K/mol
373.15 K, w1 = 0.889
  molar heat capacity at constant pressure: 26.21 ± 1.1 J/K/mol
373.15 K, w1 = 0.913
  molar heat capacity at constant pressure: 26.08 ± 1.1 J/K/mol
473.15 K, w1 = 0.728
  molar heat capacity at constant pressure: 27.11 ± 1.2 J/K/mol
473.15 K, w1 = 0.761
  molar heat capacity at constant pressure: 25.61 ± 1.1 J/K/mol
473.15 K, w1 = 0.837
  molar heat capacity at constant pressure: 28.07 ± 1.2 J/K/mol
473.15 K, w1 = 0.889
  molar heat capacity at constant pressure: 26.68 ± 1.1 J/K/mol
473.15 K, w1 = 0.913
  molar heat capacity at constant pressure: 26.45 ± 1.1 J/K/mol
573.15 K, w1 = 0.728
  molar heat capacity at constant pressure: 27.43 ± 1.2 J/K/mol
573.15 K, w1 = 0.761
  molar heat capacity at constant pressure: 25.91 ± 1.1 J/K/mol
573.15 K, w1 = 0.837
  molar heat capacity at constant pressure: 28.41 ± 1.2 J/K/mol
573.15 K, w1 = 0.889
  molar heat capacity at constant pressure: 26.95 ± 1.1 J/K/mol
573.15 K, w1 = 0.913
  molar heat capacity at constant pressure: 26.75 ± 1.1 J/K/mol
673.15 K, w1 = 0.728
  molar heat capacity at constant pressure: 27.89 ± 1.2 J/K/mol
673.15 K, w1 = 0.761
  molar heat capacity at constant pressure: 26.04 ± 1.1 J/K/mol
673.15 K, w1 = 0.837
  molar heat capacity at constant pressure: 28.66 ± 1.2 J/K/mol
673.15 K, w1 = 0.889
  molar heat capacity at constant pressure: 27.19 ± 1.2 J/K/mol
673.15 K, w1 = 0.913
  molar heat capacity at constant pressure: 26.88 ± 1.1 J/K/mol
